Test results published in patent publication US8119630B2 (Arrow Therapeutics Limited, priority 2002, dated 2012).

Each compound was assayed on RSV (assay: XTT assay, RSV-infected Vero cells). Settings: Table 1; Vero cells infected with RSV, m.o.i.≈0.2, 6 days at 33° C.; read-out: XTT IC50.
Format: cell-based, Respiratory Syncytial Virus (RSV)
Description: Examples 1 to 74 and 83 to 124 were tested using the following protocol.
The inner 60 wells of 96 well tissue culture plates were seeded with Vero cells at 3×10^4 cells/well (1×10^4 cells/well for toxicity studies) in 100 or 150 μl of medium and incubated at 37° C. overnight or until nearing confluency. For primary screen, 25 μl compounds were added directly to 100 μl medium in single wells to duplicate plates. A third plate was prepared for simultaneous toxicity investigation.
For follow-up investigation, 70 μl of compound in duplicate wells were added directly to culture medium at 3.2× final concentration and ½ log serially diluted down columns of plate. A duplicate plate was prepared for simultaneous toxicity investigation.
Cells were infected with 25 μl RSV to give m.o.i.≈0.2. Some 100 μl of sterile distilled water were added to the outer wells of the plate and incubated at 33° C. for 6 days. Some 0.25 μl/ml PMS were added to stock XTT solution, final conc. […]. Then 25 μl warmed XTT/PMS solution were added to each well and incubated for 5 hours at 37° C. Plates were shaken (DynaTech Vari-Shaker) vigorously for 10 mins and allowed to cool for 15 mins before sealing. Absorbance at 450 nm was measured and data analysed using Microsoft Excel software.
Maximum OD450nm reading (uninfected, untreated control cells) corresponded to 100% inhibition. Minimum OD450nm readings (infected control cells) corresponded to 0% inhibition. Log 10 concentration was plotted against OD450nm and IC50 (Table 1) values were calculated from either reading 50% value from graph or using regression analysis.

Row | Structure (SMILES) | IC50 [µM]
1 | CCCCS(=O)(=O)NC1N=C(c2ccccc2)c2ccccc2NC1=O (stereo not shown) [Example 37, Butane-1-sulfonic acid-(2-oxo-5-phenyl-2,3-dihydro-H-benzo[e][1,4]diazepin-3-yl)-amide] | 15

Same assay, conditions: human respiratory syncytial virus, Vero, 144 h, read-out: XTT IC50 (uM), Table 1; Vero cells infected with RSV, m.o.i.≈0.2, 6 days at 33° C.

Row | Structure (SMILES) | IC50 [µM]
2 | O=C1Nc2ccccc2C(c2ccccc2)=NC1NS(=O)(=O)c1ccccc1Br (stereo not shown) [Example 38, 2-Bromo-N-(2-oxo-5-phenyl-2,3-dihydro-1H-benzo[e][1,4]diazepin-3-yl)-benzenesulfonamide] | 6
3 | O=C(NC1N=C(c2ccccc2)c2ccccc2NC1=O)c1csc2ccccc12 (stereo not shown) [Example 28, Benzo[b]thiophene-3-carboxylic acid (2-oxo-5-phenyl-2,3-dihydro-1H-benzo[e][1,4]diazepin-3-yl)-amide] | 5
4 | Cc1ccccc1C(=O)NC1N=C(c2ccccc2)c2ccccc2NC1=O (stereo not shown) [Example 24, 2-Methyl-N-(2-oxo-5-phenyl-2,3-dihydro-1H-benzo[e][1,4]diazepin-3-yl)-benzamide] | 3
5 | O=C(NC1N=C(c2ccccc2)c2ccccc2NC1=O)c1ccncc1 (stereo not shown) [Example 33, N-(2-Oxo-5-phenyl-2,3-dihydro-1H-benzo[e][1,4]diazepin-3-yl)-isonicotinamide] | 2.5
6 | CN1CCN(C(=O)NC2N=C(c3ccccc3)c3ccccc3NC2=O)CC1 (stereo not shown) [Example 20, 4-Methyl-piperazine-1-carboxylic acid-(2-oxo-5-phenyl-2,3-dihydro-1H-benzo[e][1,4]diazepin-3-yl)-amide] | 25
7 | O=C(Nc1ccccc1[N+](=O)[O-])NC1N=C(c2ccccc2)c2ccccc2NC1=O (stereo not shown) [Example 69, 1-(2-Nitro-phenyl)-3-(2-oxo-5-phenyl-2,3-dihydro-1H-benzo[e][1,4]diazepin-3-yl)-urea] | 1.5
8 | O=C(NC1N=C(c2ccccc2)c2ccccc2NC1=O)c1cccnc1 (stereo not shown) [Example 34, N-(2-Oxo-5-phenyl-2,3-dihydro-1H-benzo[e][1,4]diazepin-3-yl)-nicotinamide] | 3
9 | O=C1Nc2ccccc2C(c2ccccc2)=NC1NCc1ccc(C(F)(F)F)cc1 (stereo not shown) [Example 49, 5-Phenyl-3-(4-trifluoromethyl-benzylamino)-1,3-dihydro-benzo[e][1,4]diazepin-2-one] | 50
10 | COc1cc([N+](=O)[O-])ccc1C(=O)N[C@H]1N=C(c2ccccc2)c2ccccc2NC1=O [Example 27b, (S)-2-Methoxy-4-nitro-N-(2-oxo-5-phenyl-2,3-dihydro-1H-benzo[e][1,4]diazepin-3-yl)-benzamide] | < 0.3
11 | O=C(Cc1ccccc1C(F)(F)F)NC1N=C(c2ccccc2)c2ccccc2NC1=O (stereo not shown) [Example 65, N-(2-Oxo-5-phenyl-2,3-dihydro-1H-benzo[e][1,4]diazepin-3-yl)-2-(2-trifluoromethyl-phenyl)-acetamide] | 2
12 | COc1ccccc1CNC1N=C(c2ccccc2)c2ccccc2NC1=O (stereo not shown) [Example 45, 3-(2-Methoxy-benzylamino)-5-phenyl-1,3-dihydro-benzo[e][1,4]diazepin-2-one] | 20
13 | O=C(NC1N=C(c2ccccc2)c2ccccc2NC1=O)c1cc2ccccc2s1 (stereo not shown) [Example 31, Benzo[b]thiophene-2-carboxylic acid (2-oxo-5-phenyl-2,3-dihydro-1H-benzo[e][1,4]diazepin-3-yl)-amide] | 5
14 | O=C(NC1N=C(c2ccccc2)c2ccccc2NC1=O)c1ccsc1 (stereo not shown) [Example 32, Thiophen-3-carboxylic acid (2-oxo-5-phenyl-2,3-dihydro-1H-benzo[e][1,4]diazepin-3-yl)-amide] | 2
15 | O=C(Nc1ccccc1Cl)NC1N=C(c2ccccc2)c2ccccc2NC1=O (stereo not shown) [Example 70, 1-(2-Chloro-phenyl)-3-(2-oxo-5-phenyl-2,3-dihydro-1H-benzo[e][1,4]diazepin-3-yl)-urea] | 1.5
16 | O=C(NC1N=C(c2ccccc2)c2ccccc2NC1=O)c1ccccc1Cl (stereo not shown) [Example 25, 2-Chloro-N-(2-oxo-5-phenyl-2,3-dihydro-1H-benzo[e][1,4]diazepin-3-yl)-benzamide] | 2
